ChEMBL document CHEMBL4811240, “Discovery of N-substituted sulfamoylbenzamide derivatives as novel inhibitors of STAT3 signaling pathway based on Niclosamide” (Eur J Med Chem, 2021)
The source made the active and inactive calls. The calls are words filed in the database; no cut-off is given here.

Columns and labels:
MDA-MB-231 [1] = test: Induction of apoptosis in human MDA-MB-231 cells assessed as increase in cleaved caspase 3 expression at 1 to 10 uM incubated for 24 hrs by Western blot analysis; type: functional, cell-based; conditions: dose 1-10 µM
MDA-MB-231 [2] = test: Induction of apoptosis in human MDA-MB-231 cells assessed as decrease in Bcl-xl expression at 1 to 10 uM incubated for 24 hrs by Western blot analysis; type: functional, cell-based; conditions: dose 1-10 µM
[3] = target: Platelet-derived growth factor receptor beta (Homo sapiens) (UniProt P09619); test: Inhibition of PDGFRbeta (557 to 1106 residues) (unknown origin) expressed in Sf21 at 10 uM preincubated for 10 mins followed by peptide substrate addition relative to control
[4] = target: Proto-oncogene tyrosine-protein kinase ROS (Homo sapiens) (UniProt P08922); test: Inhibition of N-terminal GST-tagged ROS1 (1883 to 2347 residues) (unknown origin) expressed in Sf21 cells at 10 uM preincubated for 10 mins followed by peptide substrate addition relative to control
MDA-MB-231 [5] = test: Inhibition of human MDA-MB-231 cells migration a 1000 nM after 24 hrs by crystal violet staining based transwell migration assay; type: functional, cell-based
[6] = target: Mast/stem cell growth factor receptor Kit (Homo sapiens) (UniProt P10721); test: Inhibition of c-KIT (544 to 976 residues) (unknown origin) expressed in Sf21 cells at 10 uM preincubated for 10 mins followed by peptide substrate addition relative to control
[7] = target: Signal transducer and activator of transcription 3 (Homo sapiens) (UniProt P40763); test: Inhibition of STAT3 phosphorylation at Y705 residue in human MDA-MB-231 cells incubated for 2 hrs by Western blotting analysis; type: cell-based; conditions: dose 1-10 µM
[8] = target: Mitogen-activated protein kinase 8 (Homo sapiens) (UniProt P45983); test: Inhibition of N-terminal GST-tagged JNK1 (2 to 364 residues) (unknown origin) expressed in Escherichia coli at 10 uM preincubated for 10 mins followed by peptide substrate addition relative to control
[9] = target: Signal transducer and activator of transcription 1-alpha/beta (Homo sapiens) (UniProt P42224); test: Inhibition of IL-6 induced STAT1 phosphorylation in human MDA-MB-231 cells at 1 to 10 uM preincubated for 2 hrs followed by IL-6 stimulation and measured after 45 mins by Western blotting analysis; type: cell-based; conditions: dose 1-10 µM, time 165.0 min
[10] = target: Fibroblast growth factor receptor 4 (Homo sapiens) (UniProt P22455); test: Inhibition of FGFR4 (460 to 802 residues) (unknown origin) expressed in Sf21 cells at 10 uM preincubated for 10 mins followed by peptide substrate addition relative to control
MDA-MB-231 [11] = test: Induction of apoptosis in human MDA-MB-231 cells assessed as apoptotic cells at 10 uM measured after 24 hrs by annexinV-FITC/propidium iodide staining based flow cytometry analysis (reference value: 2.49%); type: functional
MDA-MB-231 [12] = test: Induction of apoptosis in human MDA-MB-231 cells assessed as apoptotic cells at 5 uM measured after 24 hrs by annexinV-FITC/propidium iodide staining based flow cytometry analysis (reference value: 2.49%); type: functional
[13] = target: Cyclin-dependent kinase 1/cyclin B1 (Homo sapiens) (UniProt P06493+P14635); test: Inhibition of N-terminal GST-tagged full length CDK1/cyclin B1 (unknown origin) expressed in Sf21 cells at 10 uM preincubated for 10 mins followed by peptide substrate addition relative to control
[14] = target: ALK tyrosine kinase receptor (Homo sapiens) (UniProt Q9UM73); test: Inhibition of ALK (1058 to 1620 residues) (unknown origin) expressed in Sf21 cells at 10 uM preincubated for 10 mins followed by peptide substrate addition relative to control
MDA-MB-231 [15] = test: Induction of apoptosis in human MDA-MB-231 cells assessed as increase in cleaved caspase 9 expression at 1 to 10 uM incubated for 24 hrs by Western blot analysis; type: functional, cell-based; conditions: dose 1-10 µM
[16] = target: Epidermal growth factor receptor (Homo sapiens) (UniProt P00533); test: Inhibition of wild-type EGFR (669 to 1210 residues) (unknown origin) expressed in Sf21 cells at 10 uM preincubated for 10 mins followed by peptide substrate addition relative to control
[17] = target: Tyrosine-protein kinase JAK2 (Homo sapiens) (UniProt O60674); test: Inhibition of JAK2 (826 to 1132 residues) (unknown origin) expressed in Sf21 cells at 10 uM preincubated for 10 mins followed by peptide substrate addition relative to control
[18] = tested on: Epidermal growth factor receptor (Homo sapiens), P00533 [L858R]; test: Inhibition of EGFR L858R mutant (669 to 1210 residues) (unknown origin) expressed in Sf21 cells at 10 uM preincubated for 10 mins followed by peptide substrate addition relative to control
[19] = target: Signal transducer and activator of transcription 3 (Homo sapiens) (UniProt P40763); test: Inhibition of IL-6 induced STAT3 phosphorylation in human MDA-MB-231 cells at 5 uM incubated for 2 hrs by Western blotting analysis; type: cell-based
[20] = target: Signal transducer and activator of transcription 3 (Homo sapiens) (UniProt P40763); test: Inhibition of STAT3 promoter activity in human MDA-MB-231 cells at 0.1 uM incubated for 24 hrs by dual luciferase reporter assay; type: cell-based
[21] = Toxicity in BALB/c nude mouse xenografted with human MDA-MB-231 cells assessed as effect on body weight at 30 mg/kg, ig administered every two days; type: organism-based; conditions: in vivo, po
[22] = target: Fibroblast growth factor receptor 3 (Homo sapiens) (UniProt P22607); test: Inhibition of FGFR3 (436 to 806 residues) (unknown origin) expressed in Sf21 cells at 10 uM preincubated for 10 mins followed by peptide substrate addition relative to control
[23] = target: Hepatocyte growth factor receptor (Homo sapiens) (UniProt P08581); test: Inhibition of MET (956 to 1390 residues) (unknown origin) expressed in Sf21 cells at 10 uM preincubated for 10 mins followed by peptide substrate addition relative to control
[24] = target: Mitogen-activated protein kinase 1 (Homo sapiens) (UniProt P28482); test: Inhibition of N-terminal GST-tagged full length ERK2 (1 to 360 residues) (unknown origin) expressed in Escherichia coli at 10 uM preincubated for 10 mins followed by peptide substrate addition relative to control
MDA-MB-231 [25] = test: Induction of apoptosis in human MDA-MB-231 cells assessed as apoptotic cells at 1 uM measured after 24 hrs by annexinV-FITC/propidium iodide staining based flow cytometry analysis (reference value: 2.49%); type: functional
[26] = target: Signal transducer and activator of transcription 3 (Homo sapiens) (UniProt P40763); test: Inhibition of STAT3 promoter activity in human MDA-MB-231 cells at 1 uM incubated for 24 hrs by dual luciferase reporter assay; type: cell-based
[27] = Lipophilicity, log P of the compound; type: physicochemical; conditions: octanol/water
[28] = target: Mitogen-activated protein kinase 3 (Homo sapiens) (UniProt P27361); test: Inhibition of N-terminal GST-tagged full length ERK1 (1 to 379 residues) (unknown origin) expressed in Escherichia coli at 10 uM preincubated for 10 mins followed by peptide substrate addition relative to control
MDA-MB-231 [29] = test: Effect on total STAT3 expression in human MDA-MB-231 cells at 1 to 10 uM incubated for 2 hrs by Western blotting analysis; type: functional, cell-based; conditions: dose 1-10 µM
MDA-MB-231 [30] = test: Induction of apoptosis in human MDA-MB-231 cells assessed as increase in cleaved PARP expression at 1 to 10 uM incubated for 24 hrs by Western blot analysis; type: functional, cell-based; conditions: dose 1-10 µM

Chain of Signal transducer and activator of transcription 3 (Homo sapiens) (P40763 whole entry, the tested form may be a part): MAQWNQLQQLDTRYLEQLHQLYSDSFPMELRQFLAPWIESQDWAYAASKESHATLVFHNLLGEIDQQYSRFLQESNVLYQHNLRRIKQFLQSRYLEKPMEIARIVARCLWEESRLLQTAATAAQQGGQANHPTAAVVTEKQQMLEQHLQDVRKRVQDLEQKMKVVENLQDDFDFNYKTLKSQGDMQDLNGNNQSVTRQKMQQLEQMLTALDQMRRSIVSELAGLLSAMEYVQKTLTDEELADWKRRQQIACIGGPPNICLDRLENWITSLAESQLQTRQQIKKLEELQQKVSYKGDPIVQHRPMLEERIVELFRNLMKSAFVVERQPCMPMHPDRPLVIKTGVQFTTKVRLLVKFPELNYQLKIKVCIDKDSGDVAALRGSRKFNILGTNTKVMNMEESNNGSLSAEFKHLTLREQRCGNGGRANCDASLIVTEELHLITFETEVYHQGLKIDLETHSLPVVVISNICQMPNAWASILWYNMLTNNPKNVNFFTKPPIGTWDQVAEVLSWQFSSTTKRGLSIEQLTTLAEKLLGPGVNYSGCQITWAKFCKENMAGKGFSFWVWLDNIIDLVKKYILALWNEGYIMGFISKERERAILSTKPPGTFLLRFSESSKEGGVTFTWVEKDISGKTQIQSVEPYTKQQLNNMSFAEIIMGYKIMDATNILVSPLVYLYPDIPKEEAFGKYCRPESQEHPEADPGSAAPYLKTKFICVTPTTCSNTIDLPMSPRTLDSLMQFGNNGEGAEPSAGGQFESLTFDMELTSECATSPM
Chain of Platelet-derived growth factor receptor beta (Homo sapiens) (P09619 whole entry, the tested form may be a part): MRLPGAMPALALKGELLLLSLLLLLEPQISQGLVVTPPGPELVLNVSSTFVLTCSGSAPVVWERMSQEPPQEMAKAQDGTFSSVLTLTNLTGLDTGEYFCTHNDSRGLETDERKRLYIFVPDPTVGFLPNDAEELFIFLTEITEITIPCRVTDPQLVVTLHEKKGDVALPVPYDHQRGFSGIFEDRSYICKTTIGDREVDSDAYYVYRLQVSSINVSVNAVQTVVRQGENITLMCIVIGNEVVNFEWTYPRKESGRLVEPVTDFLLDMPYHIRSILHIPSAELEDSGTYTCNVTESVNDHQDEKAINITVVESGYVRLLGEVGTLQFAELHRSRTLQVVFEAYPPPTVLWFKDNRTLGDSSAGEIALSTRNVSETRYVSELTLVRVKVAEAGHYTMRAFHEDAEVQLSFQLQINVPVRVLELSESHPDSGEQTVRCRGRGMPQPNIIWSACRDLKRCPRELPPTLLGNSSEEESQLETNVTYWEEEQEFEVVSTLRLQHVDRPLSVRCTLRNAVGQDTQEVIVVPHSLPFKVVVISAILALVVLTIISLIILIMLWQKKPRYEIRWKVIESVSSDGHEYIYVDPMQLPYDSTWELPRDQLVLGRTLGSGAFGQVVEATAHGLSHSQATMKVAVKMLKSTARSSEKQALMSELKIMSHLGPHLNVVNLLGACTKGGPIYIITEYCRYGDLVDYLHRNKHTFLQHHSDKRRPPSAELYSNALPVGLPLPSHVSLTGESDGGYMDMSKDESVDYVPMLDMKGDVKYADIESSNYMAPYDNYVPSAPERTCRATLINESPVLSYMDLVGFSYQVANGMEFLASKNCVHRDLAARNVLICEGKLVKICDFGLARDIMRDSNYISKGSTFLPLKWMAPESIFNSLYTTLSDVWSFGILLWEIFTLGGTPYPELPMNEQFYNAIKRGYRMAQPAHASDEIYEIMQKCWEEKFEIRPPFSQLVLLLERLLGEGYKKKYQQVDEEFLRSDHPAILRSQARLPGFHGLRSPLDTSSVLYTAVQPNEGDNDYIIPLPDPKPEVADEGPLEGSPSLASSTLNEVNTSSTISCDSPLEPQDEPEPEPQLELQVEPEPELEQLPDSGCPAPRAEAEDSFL
Chain of ALK tyrosine kinase receptor (Homo sapiens) (Q9UM73 19-1620 limits assumed): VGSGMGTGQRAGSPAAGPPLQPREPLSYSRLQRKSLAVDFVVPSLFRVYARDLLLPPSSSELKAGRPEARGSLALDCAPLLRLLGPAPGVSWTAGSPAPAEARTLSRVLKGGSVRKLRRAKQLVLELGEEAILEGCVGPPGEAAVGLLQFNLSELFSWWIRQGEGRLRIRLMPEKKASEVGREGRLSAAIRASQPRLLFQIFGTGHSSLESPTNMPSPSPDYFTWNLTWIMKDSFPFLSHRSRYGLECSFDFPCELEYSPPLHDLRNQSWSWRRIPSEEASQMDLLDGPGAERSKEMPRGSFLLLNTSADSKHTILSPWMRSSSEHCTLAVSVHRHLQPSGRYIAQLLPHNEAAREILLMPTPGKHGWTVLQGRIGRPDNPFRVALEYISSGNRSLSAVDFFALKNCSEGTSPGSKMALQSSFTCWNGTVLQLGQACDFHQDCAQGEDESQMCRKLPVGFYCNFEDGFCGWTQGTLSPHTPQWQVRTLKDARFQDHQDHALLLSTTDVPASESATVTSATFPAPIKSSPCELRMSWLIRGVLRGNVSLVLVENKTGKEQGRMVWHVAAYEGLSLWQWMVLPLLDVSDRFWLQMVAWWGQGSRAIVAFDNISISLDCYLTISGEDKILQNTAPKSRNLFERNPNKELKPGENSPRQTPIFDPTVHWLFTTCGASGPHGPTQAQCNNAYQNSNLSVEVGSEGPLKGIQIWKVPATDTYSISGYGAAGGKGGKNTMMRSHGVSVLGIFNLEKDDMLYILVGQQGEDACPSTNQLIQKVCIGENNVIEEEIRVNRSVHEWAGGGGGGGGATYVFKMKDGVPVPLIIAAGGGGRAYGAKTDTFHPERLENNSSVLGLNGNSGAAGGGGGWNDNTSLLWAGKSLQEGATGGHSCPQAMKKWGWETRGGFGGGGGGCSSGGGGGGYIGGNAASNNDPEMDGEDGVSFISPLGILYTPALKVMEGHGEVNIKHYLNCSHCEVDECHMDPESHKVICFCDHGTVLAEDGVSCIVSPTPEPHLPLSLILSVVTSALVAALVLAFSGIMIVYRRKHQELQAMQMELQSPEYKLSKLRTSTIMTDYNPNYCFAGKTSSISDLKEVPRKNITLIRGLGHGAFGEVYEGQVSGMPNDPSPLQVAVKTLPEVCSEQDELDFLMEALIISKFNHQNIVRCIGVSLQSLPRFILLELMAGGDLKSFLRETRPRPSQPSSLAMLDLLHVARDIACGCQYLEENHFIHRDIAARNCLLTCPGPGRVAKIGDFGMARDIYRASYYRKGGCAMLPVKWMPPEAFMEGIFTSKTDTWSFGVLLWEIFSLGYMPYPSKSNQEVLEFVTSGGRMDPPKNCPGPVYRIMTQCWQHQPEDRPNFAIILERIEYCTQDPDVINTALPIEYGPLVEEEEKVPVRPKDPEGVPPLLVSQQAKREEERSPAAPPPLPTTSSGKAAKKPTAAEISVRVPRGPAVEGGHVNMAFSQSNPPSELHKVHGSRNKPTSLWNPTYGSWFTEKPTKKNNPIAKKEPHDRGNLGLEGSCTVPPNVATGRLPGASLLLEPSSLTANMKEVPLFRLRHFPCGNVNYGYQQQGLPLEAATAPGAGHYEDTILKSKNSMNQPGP
Chain of Epidermal growth factor receptor (Homo sapiens) (P00533 whole entry, the tested form may be a part): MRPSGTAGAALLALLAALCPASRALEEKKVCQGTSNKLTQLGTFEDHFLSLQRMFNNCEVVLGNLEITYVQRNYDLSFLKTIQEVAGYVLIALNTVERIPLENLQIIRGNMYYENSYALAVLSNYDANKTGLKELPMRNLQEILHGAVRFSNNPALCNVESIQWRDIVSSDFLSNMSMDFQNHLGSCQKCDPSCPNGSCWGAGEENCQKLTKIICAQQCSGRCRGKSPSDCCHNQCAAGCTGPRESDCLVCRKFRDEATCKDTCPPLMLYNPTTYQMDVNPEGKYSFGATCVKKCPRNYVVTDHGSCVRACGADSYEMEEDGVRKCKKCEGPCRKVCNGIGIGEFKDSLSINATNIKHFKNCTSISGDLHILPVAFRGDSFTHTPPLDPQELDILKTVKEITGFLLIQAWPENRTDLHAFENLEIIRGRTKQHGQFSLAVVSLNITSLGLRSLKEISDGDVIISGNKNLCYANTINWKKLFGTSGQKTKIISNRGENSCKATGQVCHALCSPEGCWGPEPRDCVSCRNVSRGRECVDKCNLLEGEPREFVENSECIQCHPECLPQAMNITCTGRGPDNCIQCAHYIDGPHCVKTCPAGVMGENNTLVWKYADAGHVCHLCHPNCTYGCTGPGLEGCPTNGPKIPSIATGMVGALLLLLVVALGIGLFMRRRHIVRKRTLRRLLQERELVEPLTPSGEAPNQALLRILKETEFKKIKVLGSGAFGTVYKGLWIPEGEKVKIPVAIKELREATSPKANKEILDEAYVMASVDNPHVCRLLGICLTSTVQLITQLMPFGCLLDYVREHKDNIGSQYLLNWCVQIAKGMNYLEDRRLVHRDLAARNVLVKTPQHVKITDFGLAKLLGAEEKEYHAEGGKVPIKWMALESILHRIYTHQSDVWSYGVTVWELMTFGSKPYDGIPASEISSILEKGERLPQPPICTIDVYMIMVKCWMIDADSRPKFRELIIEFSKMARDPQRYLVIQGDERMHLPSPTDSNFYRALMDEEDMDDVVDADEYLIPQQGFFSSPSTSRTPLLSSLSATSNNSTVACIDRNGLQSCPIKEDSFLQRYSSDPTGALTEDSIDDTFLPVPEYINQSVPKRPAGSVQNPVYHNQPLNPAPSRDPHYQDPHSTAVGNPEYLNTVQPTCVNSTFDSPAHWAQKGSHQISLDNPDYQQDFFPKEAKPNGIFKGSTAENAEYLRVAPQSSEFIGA
Chain of Mitogen-activated protein kinase 1 (Homo sapiens) (P28482 whole entry, the tested form may be a part): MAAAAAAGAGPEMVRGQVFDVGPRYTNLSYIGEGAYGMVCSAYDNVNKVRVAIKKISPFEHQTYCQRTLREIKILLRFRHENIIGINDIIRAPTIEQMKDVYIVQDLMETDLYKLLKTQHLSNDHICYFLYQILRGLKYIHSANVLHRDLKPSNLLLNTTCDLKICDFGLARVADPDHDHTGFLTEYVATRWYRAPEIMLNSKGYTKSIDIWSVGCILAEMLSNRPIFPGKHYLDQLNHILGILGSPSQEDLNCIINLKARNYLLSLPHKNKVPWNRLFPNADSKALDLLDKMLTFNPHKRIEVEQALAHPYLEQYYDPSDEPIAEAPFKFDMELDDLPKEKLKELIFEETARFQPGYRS

- inhibition [3]: -1.19%
- inhibition [4]: -3.38%
- inhibition [6]: 3.33%
- inhibition [7]: Dose-Dependent Effect
- inhibition [8]: 2.52%
- inhibition [9]: inactive
- inhibition [10]: -1.53%
- inhibition [13]: -2.27%
- inhibition [14]: 5.19%
- inhibition [16]: 4.41%
- inhibition [17]: 4.77%
- inhibition [18]: 4.82%
- inhibition [19]: 100%
- inhibition [20]: 24.7%
- inhibition [22]: 1.25%
- inhibition [23]: 0.13%
- inhibition [24]: 0.78%
- inhibition [26]: 87.9%
- logP [27]: 1.83
- inhibition [28]: 1.72%
Structure (SMILES): CC(C)(C)OC(=O)c1ccc(NC(=O)c2ccc(Cl)c(S(N)(=O)=O)c2)cc1
- Activity (MDA-MB-231 [1]): Active
- Activity (MDA-MB-231 [2]): Active
- inhibition (MDA-MB-231 [5]): Active
- Activity (MDA-MB-231 [11]): 25.63%
- Activity (MDA-MB-231 [12]): 23.14%
- Activity (MDA-MB-231 [15]): Active
- Activity [21]: Non-Toxic
- Activity (MDA-MB-231 [25]): 6.75%
- inhibition (MDA-MB-231 [29]): Active
- Activity (MDA-MB-231 [30]): Active
